Drawing on patent US10294212B2 (CURADEV PHARMA PRIVATE LTD., priority 2013, dated 2019), this text covers IC50 for 31 compounds.

Broadly, the IC50 is the concentration at which inhibition is half-maximal.

SMILES strings stand for the structures. Where a name gives a salt, the structure may show the parent alone.

Assay [1] deals with Human TDO (hTDO)-transfected CHO-K1 cells (Homo sapiens (Human), UniProt P48775). In words: CHO-K1 cell based TDO assay. The conditions noted are these: hTDO cellular assay. The gist of the method:
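Kynurenine output was read by LC/MS/MS after TCA precipitation and 15 min at 65° C. Before that, CHO-K1 cells stably carrying human TDO2 were incubated 2 h with compounds (typically 31 μM to 10 nM) and 80 μM L-tryptophan in HBSS. Decrease versus DMSO vehicle gave percent inhibition, then IC50.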

The target of another assay is IDO1 in HeLa cells (Homo sapiens (Human), UniProt P14902). In words: HeLa cell based IDO1 assay (IFNγ-induced, KYN in supernatant). The gist of the method: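 Kynurenine in the supernatant, quantified by C-18 HPLC with 360 nm absorbance after TCA hydrolysis (65 °C, 15 min), was the read-out. Compounds (typically 10 μM to 1 nM) were added in HBSS containing 80 μM tryptophan to HeLa cells pre-induced overnight with 50 ng/mL IFNγ. IC50 came from nonlinear fits of % inhibition versus 1% DMSO vehicle.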

In assay [2] the target is Human indoleamine 2,3-dioxygenase1 (hIDO1) (Homo sapiens (Human), UniProt P14902). In words: In-vitro IDO1 enzyme assay (conversion of L-tryptophan to KYN). The conditions noted are these: read-out: IC50 (IDO1) Enz. The assay is classed as biochemical. The gist of the method: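 Kynurenine formation quantified by HPLC absorbance at 360 nm or LC/MS/MS after TCA quench and 15 min at 65 °C. Reaction: 10 nM N-His hIDO1, 30 μM tryptophan, ascorbate/methylene blue/catalase, pH 6.5 phosphate buffer, 37 °C for 30 min. Inhibition relative to 1% DMSO vehicle, fitted to IC50.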
Chain of Human indoleamine 2,3-dioxygenase1 (hIDO1) (P14902 whole entry): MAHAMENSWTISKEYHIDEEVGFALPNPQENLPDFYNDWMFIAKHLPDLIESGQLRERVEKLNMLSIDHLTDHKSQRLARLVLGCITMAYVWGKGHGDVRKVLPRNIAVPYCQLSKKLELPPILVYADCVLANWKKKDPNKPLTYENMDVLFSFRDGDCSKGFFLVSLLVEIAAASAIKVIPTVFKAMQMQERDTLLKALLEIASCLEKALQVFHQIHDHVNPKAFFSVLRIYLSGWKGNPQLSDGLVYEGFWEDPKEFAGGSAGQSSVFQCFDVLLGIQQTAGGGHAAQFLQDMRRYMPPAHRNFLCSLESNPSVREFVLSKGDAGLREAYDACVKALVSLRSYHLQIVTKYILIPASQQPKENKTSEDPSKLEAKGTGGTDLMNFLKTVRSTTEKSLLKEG

Chain of Human TDO (hTDO)-transfected CHO-K1 cells (P48775 whole entry): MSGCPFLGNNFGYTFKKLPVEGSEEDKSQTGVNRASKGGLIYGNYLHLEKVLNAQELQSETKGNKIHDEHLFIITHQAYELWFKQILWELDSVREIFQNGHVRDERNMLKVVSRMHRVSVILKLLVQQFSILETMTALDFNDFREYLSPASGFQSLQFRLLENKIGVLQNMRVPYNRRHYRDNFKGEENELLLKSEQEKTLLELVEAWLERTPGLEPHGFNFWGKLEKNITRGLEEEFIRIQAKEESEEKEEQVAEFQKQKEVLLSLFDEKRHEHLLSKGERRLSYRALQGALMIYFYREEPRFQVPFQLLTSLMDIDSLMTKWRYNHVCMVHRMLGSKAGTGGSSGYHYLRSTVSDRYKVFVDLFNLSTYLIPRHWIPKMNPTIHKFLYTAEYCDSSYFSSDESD
Chain of IDO1 in HeLa cells (P14902 whole entry): as the sequence (P14902 whole entry) above

For the compound `Cc1cc(Cl)cc(Nc2c(N)oc3cnccc23)c1` [Compound 87, N^3-(3-Chloro-5-methylphenyl)furo[2,3-c]pyridine-2,3-diamine], the IC50 was 500 to 2000 nM in assay [1], 200 to 1000 nM against IDO1 in HeLa cells and 200 to 1000 nM in assay [2].

On to `COc1cccc(-c2nccc3c(Nc4ccc(F)c(Cl)c4)c(N)oc23)c1` [Compound 90, N^3-(3-Chloro-4-fluorophenyl)-7-(3-methoxyphenyl)furo[2,3-c]pyridine-2,3-diamine], for which the figures for the half-maximal inhibitory concentration (IC50) (in assay [1]; against IDO1 in HeLa cells; in assay [2]) were 500 to 2000 nM, below 200 nM and below 200 nM, respectively.

On to `C#Cc1cccc(Nc2c(N)oc3c(C)nccc23)c1` [Compound 93, N^3-(3-ethynylphenyl)-7-methylfuro[2,3-c]pyridine-2,3-diamine], for which the results for the IC50 (in assay [1]; against IDO1 in HeLa cells; in assay [2]) were 500 to 2000 nM, below 200 nM and 200 to 1000 nM, respectively.

Turning to `Nc1oc2c(-c3cccnc3)nccc2c1Nc1ccc(F)c(Cl)c1` [Compound 94, N^3-(3-chloro-4-fluorophenyl)-7-(pyridin-3-yl)furo[2,3-c]pyridine-2,3-diamine], the values for the concentration for half-maximal inhibition (IC50) (in assay [1]; at IDO1 in HeLa cells; in assay [2]) were below 500 nM, below 200 nM and below 200 nM, respectively.

Take `C#Cc1cccc(Nc2c(N)oc3c(CC)nccc23)c1` [Compound 96, 7-Ethyl-N^3-(3-ethynylphenyl)furo[2,3-c]pyridine-2,3-diamine]: the IC50 is 500 to 2000 nM in assay [1], below 200 nM against IDO1 in HeLa cells and below 200 nM in assay [2].

Turning to `COc1ccccc1-c1nccc2c(Nc3ccc(F)c(Cl)c3)c(N)oc12` [Compound 98, N^3-(3-Chloro-4-fluorophenyl)-7-(2-methoxyphenyl)furo[2,3-c]pyridine-2,3-diamine], the IC50 was 500 to 2000 nM in assay [1], below 200 nM on IDO1 in HeLa cells and below 200 nM in assay [2].

As to `N#Cc1cccc(Nc2c(N)oc3cnccc23)c1` [Compound 99, 3-((2-Aminofuro[2,3-c]pyridin-3-yl)amino)benzonitrile], the IC50 in assay [1] is above 2000 nM; against IDO1 in HeLa cells it was below 200 nM; in assay [2], above 1000 nM.

Consider `Nc1oc2c(-c3cccc(Cl)c3)nccc2c1Nc1ccc(F)c(Cl)c1` [Compound 100, N^3-(3-Chloro-4-fluorophenyl)-7-(3-chlorophenyl)furo[2,3-c]pyridine-2,3-diamine], for which the IC50 is above 2000 nM in assay [1], below 200 nM against IDO1 in HeLa cells and below 200 nM in assay [2].

As for `CCCCOc1cc2c(Nc3ccc(F)c(Cl)c3)c(N)oc2c(-c2ccccc2)n1` [Compound 102, 5-Butoxy-N^3-(3-chloro-4-fluorophenyl)-7-phenylfuro[2,3-c]pyridine-2,3-diamine], the half-inhibitory concentration (IC50) in assay [1] was above 2000 nM; on IDO1 in HeLa cells it was above 1000 nM; in assay [2], above 1000 nM.

For the compound `N#Cc1nccc2c(Nc3ccc(F)c(Cl)c3)c(N)oc12` [Compound 103, 2-Amino-3-((3-chloro-4-fluorophenyl)amino)furo[2,3-c]pyridine-7-carbonitrile], the IC50 in assay [1] was below 500 nM; against IDO1 in HeLa cells, below 200 nM; in assay [2], below 200 nM.

For `CCOc1cc2c(Nc3ccc(F)c(Cl)c3)c(N)oc2c(-c2ccccc2)n1` [Compound 105, N^3-(3-Chloro-4-fluorophenyl)-5-ethoxy-7-phenylfuro[2,3-c]pyridine-2,3-diamine], the values for the IC50 (in assay [1]; against IDO1 in HeLa cells; in assay [2]) were above 2000 nM, above 1000 nM and 200 to 1000 nM, respectively.

In the case of `Nc1oc2c(C3CCCCC3)nccc2c1Nc1ccc(F)c(Cl)c1` [Compound 108, N^3-(3-Chloro-4-fluorophenyl)-7-cyclohexylfuro[2,3-c]pyridine-2,3-diamine], the 50% inhibitory concentration (IC50) in assay [1] was 500 to 2000 nM; against IDO1 in HeLa cells it was below 200 nM; in assay [2], below 200 nM.

For `CCc1cc2c(Nc3ccc(F)c(Cl)c3)c(N)oc2c(-c2ccccc2)n1` [Compound 109, N^3-(3-chloro-4-fluorophenyl)-5-ethyl-7-phenylfuro[2,3-c]pyridine-2,3-diamine], the results for the concentration for half-maximal inhibition (IC50) (in assay [1]; on IDO1 in HeLa cells; in assay [2]) were above 2000 nM, 200 to 1000 nM and 200 to 1000 nM, respectively.

Take `C#Cc1cc(Nc2c(N)oc3c(-c4ccccc4)nccc23)ccc1F` [Compound 110, N^3-(3-Ethynyl-4-fluorophenyl)-7-phenylfuro[2,3-c]pyridine-2,3-diamine]: the figures for the 50% inhibitory concentration (IC50) (in assay [1]; on IDO1 in HeLa cells; in assay [2]) were 500 to 2000 nM, below 200 nM and below 200 nM, respectively.

Regarding `C#Cc1cc(Nc2c(N)oc3c(-c4ccncc4)nccc23)ccc1F` [Compound 111, N^3-(3-Ethynyl-4-fluorophenyl)-7-(pyridin-4-yl)furo[2,3-c]pyridine-2,3-diamine], the IC50 in assay [1] is 500 to 2000 nM; at IDO1 in HeLa cells, below 200 nM; in assay [2], below 200 nM.

Turning to `N#Cc1ccc2c(Nc3cccc(C(F)(F)F)c3)c(N)oc2c1` [Compound 113, 2-Amino-3-((3-(trifluoromethyl)phenyl)amino)benzofuran-6-carbonitrile], the results for the IC50 (in assay [1]; against IDO1 in HeLa cells; in assay [2]) were 500 to 2000 nM, below 200 nM and below 200 nM, respectively.

As to `Cc1cccc(Nc2c(N)oc3cc(C#N)ccc23)c1` [Compound 114, 2-Amino-3-(m-tolylamino)benzofuran-6-carbonitrile], the IC50 was above 2000 nM in assay [1], below 200 nM on IDO1 in HeLa cells and 200 to 1000 nM in assay [2].

Consider `N#Cc1ccc2c(Nc3cccc(Br)c3)c(N)oc2c1` [Compound 115, 2-Amino-3-((3-bromophenyl)amino)benzofuran-6-carbonitrile], for which the IC50 in assay [1] was below 500 nM; against IDO1 in HeLa cells it was below 200 nM; in assay [2], below 200 nM.

As to `N#Cc1ccc2c(Nc3ccccc3Cl)c(N)oc2c1` [Compound 116, 2-Amino-3-((2-chlorophenyl)amino)benzofuran-6-carbonitrile], the values for the concentration for half-maximal inhibition (IC50) (in assay [1]; against IDO1 in HeLa cells; in assay [2]) were above 2000 nM, 200 to 1000 nM and above 1000 nM, respectively.

With `Nc1sc2ccccc2c1Nc1ccc(F)c(Cl)c1` [Compound 117, N^3-(3-Chloro-4-fluorophenyl)benzo[b]thiophene-2,3-diamine], the IC50 in assay [1] is below 500 nM; against IDO1 in HeLa cells it was below 200 nM; in assay [2], below 200 nM.

For the compound `Nc1sc2ccccc2c1Nc1cccc(C(F)(F)F)c1` [Compound 119, N^3-(3-(Trifluoromethyl)phenyl)benzo[b]thiophene-2,3-diamine], the half-inhibitory concentration (IC50) in assay [1] was above 2000 nM; against IDO1 in HeLa cells, below 200 nM; in assay [2] it was below 200 nM.

In the case of `Nc1sc2ccccc2c1Nc1cccc(F)c1` [Compound 120, N^3-(3-Fluorophenyl)benzo[b]thiophene-2,3-diamine], the IC50 was below 500 nM in assay [1], below 200 nM against IDO1 in HeLa cells and below 200 nM in assay [2].

As to `Nc1sc2ccc(Br)cc2c1Nc1ccc(F)c(Cl)c1` [Compound 123, 5-Bromo-N^3-(3-chloro-4-fluorophenyl)benzo[b]thiophene-2,3-diamine], the IC50 in assay [1] was above 2000 nM; against IDO1 in HeLa cells it was 200 to 1000 nM; in assay [2] it was below 200 nM.

With `Nc1sc2ccccc2c1Nc1ccc(Cl)c(C(F)(F)F)c1` [Compound 124, N^3-(4-Chloro-3-(trifluoromethyl)phenyl)benzo[b]thiophene-2,3-diamine], the IC50 in assay [1] is above 2000 nM; on IDO1 in HeLa cells it was below 200 nM; in assay [2] it was below 200 nM.

Take `Nc1sc2ccccc2c1Nc1ccc(Br)c(C(F)(F)F)c1` [Compound 126, N^3-(4-Bromo-3-(trifluoromethyl)phenyl)benzo[b]thiophene-2,3-diamine]: the results for the IC50 (in assay [1]; on IDO1 in HeLa cells; in assay [2]) were above 2000 nM, 200 to 1000 nM and 200 to 1000 nM, respectively.

With `Nc1sc2ccc(Cl)cc2c1Nc1ccccc1` [Compound 130, 5-Chloro-N^3-phenylbenzo[b]thiophene-2,3-diamine], the 50% inhibitory concentration (IC50) in assay [1] is above 2000 nM; against IDO1 in HeLa cells it was 200 to 1000 nM; in assay [2], 200 to 1000 nM.

Turning to `Nc1sc2ccc(Cl)cc2c1Nc1ccc(F)cc1` [Compound 131, 5-Chloro-N^3-(4-fluorophenyl)benzo[b]thiophene-2,3-diamine], the IC50 lay within 500 to 2000 nM in assay [1], 200 to 1000 nM against IDO1 in HeLa cells and 200 to 1000 nM in assay [2].

`Nc1sc2ccc(Cl)cc2c1Nc1ccc(F)c(C(F)(F)F)c1` [Compound 132, 5-Chloro-N^3-(4-fluoro-3-(trifluoromethyl)phenyl)benzo[b]thiophene-2,3-diamine]: the IC50 in assay [1] is above 2000 nM; at IDO1 in HeLa cells it was 200 to 1000 nM; in assay [2] it was 200 to 1000 nM.

For `Nc1sc2ccc(Cl)cc2c1Nc1cccc(C(F)(F)F)c1` [Compound 133, 5-Chloro-N^3-(3-(trifluoromethyl)phenyl)benzo[b]thiophene-2,3-diamine hydrochloride], the figures for the 50% inhibitory concentration (IC50) (in assay [1]; on IDO1 in HeLa cells; in assay [2]) were 500 to 2000 nM, 200 to 1000 nM and 200 to 1000 nM, respectively.

`C#Cc1cccc(Nc2c(N)sc3ccccc23)c1` [Compound 137, N^3-(3-Ethynylphenyl)-1-benzothiophene-2,3-diamine]: the IC50 was above 2000 nM in assay [1], below 200 nM on IDO1 in HeLa cells and 200 to 1000 nM in assay [2].

In the case of `Cc1cccc(Nc2c(N)sc3ccccc23)c1C` [Compound 138, N^3-(2,3-Dimethylphenyl)-1-benzothiophene-2,3-diamine], the results for the IC50 (in assay [1]; against IDO1 in HeLa cells; in assay [2]) were 500 to 2000 nM, 200 to 1000 nM and above 1000 nM, respectively.
